From US8557796B2, “Substituted 1-oxa-2,8-diaza-spiro [4,5] dec-2-ene derivatives and related treatment methods” (Gruenenthal GmbH, priority 2001, dated 2013) come the findings set out here.

In one assay the target is T1, α2A-receptor (Homo sapiens, UniProt P08913).
T1 construct: purchased
T1 sequence (P08913 1-465): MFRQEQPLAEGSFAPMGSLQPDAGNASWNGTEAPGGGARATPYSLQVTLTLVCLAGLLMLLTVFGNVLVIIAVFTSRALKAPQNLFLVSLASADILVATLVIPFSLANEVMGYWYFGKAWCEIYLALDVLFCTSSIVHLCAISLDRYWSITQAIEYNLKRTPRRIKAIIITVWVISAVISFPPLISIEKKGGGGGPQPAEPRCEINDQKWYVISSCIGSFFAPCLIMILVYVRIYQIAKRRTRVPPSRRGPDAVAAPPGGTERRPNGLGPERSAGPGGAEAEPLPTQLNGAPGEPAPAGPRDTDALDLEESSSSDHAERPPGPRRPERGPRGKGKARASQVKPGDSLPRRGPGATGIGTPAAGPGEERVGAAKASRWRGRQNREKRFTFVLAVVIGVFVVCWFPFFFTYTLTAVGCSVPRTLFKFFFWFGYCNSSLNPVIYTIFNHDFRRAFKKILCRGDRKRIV
The assay is described as follows: α2A-assay, displacement of a marked ligand. The format is binding. To be noted: human receptor membranes, read-out: alpha2A human, 1 μM, % inhibition. The protocol:
The bond was measured here by the displacement of a marked ligand. The test was carried out according to J. P. Devlin's instructions, “High throughput screening—the discovery of bioactive substances”, p. 275-453, Marcel Dekker, New York, 1997. Membranes containing […] (human) were obtained commercially.
Compounds according to the invention were tested in this assay: the measured results are recited in Table 5: […]

For another assay, the target named is T2, NA transporter (Rattus norvegicus, UniProt Q9WTR4).
T2 construct: synaptosomes from rat brain regions were freshly isolated; from tissue; host or cells: P2 synaptosome fraction from hypothalamus of male rat brain
T2 sequence (Q9WTR4 1-597): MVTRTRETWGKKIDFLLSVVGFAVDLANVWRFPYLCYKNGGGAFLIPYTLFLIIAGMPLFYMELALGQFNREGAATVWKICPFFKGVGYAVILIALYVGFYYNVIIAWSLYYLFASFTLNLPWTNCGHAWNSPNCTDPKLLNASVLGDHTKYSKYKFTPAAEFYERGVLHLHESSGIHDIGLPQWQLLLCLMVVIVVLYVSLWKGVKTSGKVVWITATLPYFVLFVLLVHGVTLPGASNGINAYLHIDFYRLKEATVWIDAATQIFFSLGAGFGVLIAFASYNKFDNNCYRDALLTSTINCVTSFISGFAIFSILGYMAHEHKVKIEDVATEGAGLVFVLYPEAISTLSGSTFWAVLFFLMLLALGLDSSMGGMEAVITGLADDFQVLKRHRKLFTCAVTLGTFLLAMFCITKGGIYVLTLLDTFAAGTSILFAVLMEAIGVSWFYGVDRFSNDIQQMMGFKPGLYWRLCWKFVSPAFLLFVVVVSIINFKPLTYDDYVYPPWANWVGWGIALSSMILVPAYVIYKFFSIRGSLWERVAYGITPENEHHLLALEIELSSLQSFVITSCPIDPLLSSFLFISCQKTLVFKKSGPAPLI
The assay is described as follows: Noradrenalin uptake inhibition (NA-uptake) in synaptosomes. The assay is classed as biochemical. Particulars: rat hypothalamus synaptosomes. The text has this:
Tests on Noradrenalin Uptake Inhibition (NA-Uptake Inhibition)
In order to be able to carry out these in vitro studies, synaptosomes from rat brain regions were freshly isolated.

Another assay has as its target T3, 5HT-uptake (Rattus norvegicus, UniProt P31652).
T3 construct: synaptosomes from rat brain regions were freshly isolated; from tissue; host or cells: P2 synaptosome fraction from rat brain regions
The assay is described as follows: Serotonin uptake inhibition (5HT uptake) in synaptosomes. The format is biochemical. To be noted: rat brain synaptosomes.

Molecules are shown by their SMILES.

T3 sequence (P31652 whole entry): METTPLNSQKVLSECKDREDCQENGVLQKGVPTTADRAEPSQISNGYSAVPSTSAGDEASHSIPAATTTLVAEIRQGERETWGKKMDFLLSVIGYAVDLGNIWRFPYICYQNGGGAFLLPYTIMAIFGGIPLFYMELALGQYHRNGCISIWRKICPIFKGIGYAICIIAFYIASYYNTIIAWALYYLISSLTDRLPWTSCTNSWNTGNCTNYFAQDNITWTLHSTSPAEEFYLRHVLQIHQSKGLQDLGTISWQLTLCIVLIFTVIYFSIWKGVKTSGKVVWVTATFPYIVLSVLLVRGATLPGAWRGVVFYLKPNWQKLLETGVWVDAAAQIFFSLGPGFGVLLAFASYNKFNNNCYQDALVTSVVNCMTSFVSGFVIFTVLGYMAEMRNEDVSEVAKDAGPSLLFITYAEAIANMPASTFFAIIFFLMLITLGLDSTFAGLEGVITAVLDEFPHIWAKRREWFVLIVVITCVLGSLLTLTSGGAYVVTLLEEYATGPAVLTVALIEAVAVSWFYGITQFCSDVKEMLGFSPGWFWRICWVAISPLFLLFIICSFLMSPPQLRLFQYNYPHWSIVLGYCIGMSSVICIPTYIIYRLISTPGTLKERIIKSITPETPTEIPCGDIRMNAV
Description for 5HT-uptake: Tests on Serotonin Uptake (5HT Uptake Inhibition)

For `Cc1ccccc1N1CCN(C(=O)C2=NOC3(CCN(S(=O)(=O)c4cccs4)CC3)C2)CC1` [Example 27, [8-(thiophene-2-sulphonyl)-1-oxa-2,8-diaza-spiro[4,5]dec-2-en-3-yl]-(4-o-tolyl-piperazin-1-yl)-methanone], the inhibition at 1 µM on α2A-receptor was found to be 37%. Besides, the results for the inhibition at 10 µM on NA transporter and on 5HT-uptake were 80% and 49%, respectively.
For the compound `COc1ccccc1C1CCN(C(=O)C2=NOC3(CCN(S(=O)(=O)c4ccc(Cl)s4)CC3)C2)CC1` [Example 151, [8-(5-chloro-thiophene-2-sulphonyl)-1-oxa-2,8-diaza-spiro[4,5]dec-2-en-3-yl]-[4-(2-methoxy-phenyl)-piperidin-1-yl]-methanone], the inhibition at 1 µM at α2A-receptor amounted to 33%.
Regarding `Cc1ccc(S(=O)(=O)N2CCC3(CC2)CC(C(=O)NC2CCCC2OCc2ccccc2)=NO3)cc1` (centres unmarked) [Example 67, 8-(toluene-4-sulphonyl)-1-oxa-2,8-diaza-spiro[4,5]dec-2-ene-3-carboxylic acid (2-benzyloxy-cyclopentyl)-amide], the “NA-uptake, 10 μM, % inhibition” value at NA transporter (10 µM) was determined as 59%. Moreover, 10 µM produced 58% inhibition against 5HT-uptake.
For `O=C(NCC1COc2ccccc2O1)C1=NOC2(CCN(S(=O)(=O)c3cccs3)CC2)C1` (centres unmarked) [Example 21, 8-(thiophene-2-sulphonyl)-1-oxa-2,8-diaza-spiro[4,5]dec-2-ene-3-carboxylic acid (2,3-dihydro-benzo[1,4]dioxin-2-ylmethyl)-amide], the inhibition at 1 µM at α2A-receptor is 31%. The inhibition at 10 µM against NA transporter was 61%.
On to `Cc1ccc(CNC(=O)C2=NOC3(CCN(C(=O)c4ccc(Br)cc4)CC3)C2)o1` [Example 109, 8-(4-bromo-benzoyl)-1-oxa-2,8-diaza-spiro[4,5]dec-2-ene-3-carboxylic acid (5-methyl-furan-2-ylmethyl)-amide], for which the inhibition at 10 µM at NA transporter is 40%; at 5HT-uptake it was 56%.
On the same counts, the results for `CN(C)S(=O)(=O)N1CCC2(CC1)CC(C(=O)N1CCN(C3CCCCCC3)CC1)=NO2` [Example 144, 3-(4-cycloheptyl-piperazine-1-carbonyl)-1-oxa-2,8-diaza-spiro[4,5]dec-2-ene-8 sulphonic acid dimethylamide] are 56% and 41%.
For `Cc1ccc(F)cc1S(=O)(=O)N1CCC2(CC1)CC(C(=O)NCCN(C)C)=NO2` [Example 37, 8-(5-fluoro-2-methyl-benzenesulphonyl)-1-oxa-2,8-diaza-spiro[4,5]dec-2-ene-3-carboxylic acid (2-dimethylamino-ethyl)-amide], the inhibition at 10 µM against NA transporter amounted to 52%; on 5HT-uptake, 70%.
On to `O=C(C1=NOC2(CCN(S(=O)(=O)c3cccs3)CC2)C1)N1CCN(CCCc2ccccc2)CC1` [Example 14, [4-(3-phenyl-propyl)-piperazin-l-yl]-[8-(thiophene-2-sulphonyl)-1-oxa-2,8-diaza-spiro[4,5]dec-2-en-3-yl]-methanone], for which the “NA-uptake, 10 μM, % inhibition” value at NA transporter was determined as 70%. Besides, the “5HT-uptake, 10 μM, % inhibition” value at 5HT-uptake was 78%.
For `CCOC(=O)N1CCC(NC(=O)C2=NOC3(CCN(C(=O)C4CC4c4ccccc4)CC3)C2)CC1` (centres unmarked) [Example 55, 4-{[8-(2-phenyl-cyclopropanecarbonyl)-1-oxa-2,8-diaza-spiro[4,5]dec-2-ene-3-carbonyl]-amino}-piperidine-1-carboxylic acid ethyl ester], the inhibition at 10 µM against NA transporter is 50%; against 5HT-uptake, 65%.
Taken in the same sequence, the figures for `CN(Cc1cccnc1)C(=O)C1=NOC2(CCN(S(=O)(=O)c3cccc(C(F)(F)F)c3)CC2)C1` [Example 101, 8-(3-trifluoromethyl-benzenesulphonyl)-1-oxa-2,8-diaza-spiro[4,5]dec-2-ene-3 carboxylic acid methyl-pyridin-3-ylmethyl-amide] were 43% and 46%.
